Where a name gives a salt, the structure may show the parent alone.
Key:
human EP3 receptor = target: T1, human EP3 receptor (Homo sapiens, UniProt P43115); test: human EP3 calcium mobilisation assay; type: cell-based; settings: CHO-K1 cells, antagonism of PGE2; averages of a number of experiments; read-out: functional pKi value (human EP3 calcium mobilisation assay) (converted)
T1 construct: expressed in transfected cells; host or cells: CHO-K1
T1 sequence (P43115 1-390): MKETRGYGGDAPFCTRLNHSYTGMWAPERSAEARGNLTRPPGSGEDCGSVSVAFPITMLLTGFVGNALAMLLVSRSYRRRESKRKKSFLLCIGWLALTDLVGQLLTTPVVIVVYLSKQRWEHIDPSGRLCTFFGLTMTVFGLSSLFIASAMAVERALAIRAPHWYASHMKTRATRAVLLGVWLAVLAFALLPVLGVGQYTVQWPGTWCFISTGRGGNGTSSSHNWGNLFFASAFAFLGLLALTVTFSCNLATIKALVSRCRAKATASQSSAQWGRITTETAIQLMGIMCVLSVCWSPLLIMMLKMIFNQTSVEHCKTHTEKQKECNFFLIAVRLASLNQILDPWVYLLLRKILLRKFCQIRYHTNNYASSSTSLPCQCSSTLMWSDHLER
Procedure: (§1) Briefly, the antagonist properties of compounds are assessed by their ability to inhibit the mobilisation of intracellular calcium ([Ca^2+]i) in response to activation of EP1 or EP3 receptors by the natural agonist hormone prostaglandin E2 (PGE2). Increasing concentrations of antagonist reduce the amount of calcium that a given concentration of PGE2 can mobilise. The net effect is to displace the PGE2 concentration-effect curve to higher concentrations of PGE2. The amount of calcium produced is assessed using a calcium-sensitive fluorescent dye such as Fluo-4, AM and a suitable instrument such as a Fluorimetric Imaging Plate Reader (FLIPR). Increasing amounts of [Ca^2+]i produced by receptor activation increase the amount of fluorescence produced by the dye and give rise to an increasing signal. The signal may be detected using the FLIPR instrument and the data generated may be analysed with suitable curve-fitting software.
(§2) The human EP1 or EP3 calcium mobilisation assay (hereafter referred to as ‘the calcium assay’) utilises Chinese hamster ovary-K1 (CHO-K1) cells into which a stable (PCIN; BioTechniques 20 (1996): 102-110) vector containing either EP1 or EP3 cDNA has previously been transfected. Cells are cultured in suitable flasks containing culture medium such as DMEM:F-12 supplemented with 10% v/v foetal calf serum, 2 mM L-glutamine, 0.25 mg/ml geneticin, 100 μM flurbiprofen and 10 μg/ml puromycin.
(§3) For assay, cells are harvested using a proprietary reagent that dislodges cells such as Versene. Cells are re-suspended in a suitable quantity of fresh culture media for introduction into a 384-well plate. Following incubation for 24 hours at 37° C. the culture media is replaced with a medium containing Fluo-4 and the detergent pluronic acid, and a further incubation takes place. Concentrations of compounds are then added to the plate in order to construct concentration-effect curves. This may be performed on the FLIPR in order to assess the agonist properties of the compounds. Concentrations of PGE2 are then added to the plate in order to assess the antagonist properties of the compounds.
(§4) The data so generated may be analysed by means of a computerised curve-fitting routine. The concentration of compound that elicits a half-maximal inhibition of the calcium mobilisation induced by PGE2 (pIC50) may then be estimated.

human EP1 receptor [1] = target: T2, human EP1 receptor (Homo sapiens, UniProt P34995); test: human EP1 calcium mobilisation assay; type: cell-based; parameters: expressed in transfected cells; settings: CHO-K1 cells, antagonism of PGE2; averages of a number of experiments; read-out: functional pKi value (human EP1 calcium mobilisation assay) (converted)
T2 sequence (P34995 1-402): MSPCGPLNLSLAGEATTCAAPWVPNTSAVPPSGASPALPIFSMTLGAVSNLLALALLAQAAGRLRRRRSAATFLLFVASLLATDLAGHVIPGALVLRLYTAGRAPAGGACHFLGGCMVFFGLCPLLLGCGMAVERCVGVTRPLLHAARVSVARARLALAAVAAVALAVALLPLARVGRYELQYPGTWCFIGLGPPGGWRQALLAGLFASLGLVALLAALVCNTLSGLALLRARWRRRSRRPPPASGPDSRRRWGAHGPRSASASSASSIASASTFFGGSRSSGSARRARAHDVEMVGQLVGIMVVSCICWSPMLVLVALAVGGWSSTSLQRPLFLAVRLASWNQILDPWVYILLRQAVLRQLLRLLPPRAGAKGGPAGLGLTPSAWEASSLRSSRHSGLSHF
Procedure: as §1, §2, §3, §4

human EP1 receptor [2] = target: T2, human EP1 receptor; test: Binding assay for the human prostanoid EP1 receptor (radioligand competition); parameters: expressed in transfected cells; host or cells: CHO-K1 (membranes); settings: CHO-K1 membranes; [3H]-PGE2 for Examples 1-17, 19, 33, 34, 60 and 61, 3-{2-[5-Bromo-2-(2,4-difluorobenzyloxy)-phenyl]-5-methyl-pyrrol-1-yl}-6-[3H3-methoxy]methoxy-benzoic acid for the remaining; averages of a number of experiments; read-out: pIC50 value (binding assay for the human prostanoid EP1 receptor) (converted)
Procedure: Compound potencies are determined using a radioligand binding assay. In this assay compound potencies are determined from their ability to compete with tritiated prostaglandin E2 ([^3H]-PGE2) for binding to the human EP1 receptor.
This assay utilises Chinese hamster ovary-K1 (CHO-K1) cells into which a stable vector containing the EP1 cDNA has previously been transfected. Cells are cultured in suitable flasks containing culture medium such as DMEM:F-12 supplemented with 10% v/v foetal calf serum, 2 mM L-glutamine, 0.25 mg/ml geneticin, 10 μg/ml puromycin and 10 μM indomethacin.
Cells are detached from the culture flasks by incubation in calcium and magnesium free phosphate buffered saline containing 1 mM disodium ethylenediaminetetraacetic acid (Na2EDTA) and […] indomethacin for 5 min. The cells are isolated by centrifugation at 250×g for 5mins and suspended in an ice cold buffer such as 50 mM Tris, 1 mM Na2EDTA, 140 mM NaCl, 10 μM indomethacin (pH 7.4). The cells are homogenised using a Polytron tissue disrupter (2×10 s burst at full setting), centrifuged at 48,000×g for 20mins and the pellet containing the membrane fraction is washed (optional) three times by suspension and centrifugation at 48,000×g for 20mins. The final membrane pellet is suspended in an assay buffer such as 10 mM 2-[N-morpholino]ethanesulphonic acid, 1 mM Na2EDTA, 10 mM MgCl2 (pH 6). Aliquots are frozen at −80° C. until required.
(§5) For the binding assay the cell membranes, competing compounds and [^3H]-PGE2 (3 nM final assay concentration) are incubated in a final volume of 100 μl for 30 min at 30° C. All reagents are prepared in assay buffer. Reactions are terminated by rapid vacuum filtration over GF/B filters using a Brandell cell harvester. The filters are washed with ice cold assay buffer, dried and the radioactivity retained on the filters is measured by liquid scintillation counting in Packard TopCount scintillation counter.
The data are analysed using non linear curve fitting techniques to determine the concentration of compound producing 50% inhibition of specific binding (IC50).
Alternatively a similar assay may be carried out using 3-{2-[5-Bromo-2-(2,4-difluoro-benzyloxy)-phenyl]-5-methyl-pyrrol-1-yl}-6-[^3H3-methoxy]methoxy-benzoic acid instead of [^3H]-PGE2.
For the binding assay using 3-{2-[5-Bromo-2-(2,4-difluoro-benzyloxy)-phenyl]-5-methyl-pyrrol-1-yl}-6-[^3H3-methoxy]methoxy-benzoic acid instead of [^3H]-PGE2 the assay is carried out using a similar procedure to that described above using [^3H]-PGE2 with the following changes:
as §5, with “The” for “For the binding assay the”, “3-{2-[5-Bromo-2-(2,4-difluoro-benzyloxy)-phenyl]-5-methyl-pyrrol-1-yl}-6-[^3H3-methoxy]methoxy-benzoic acid (0.2” for “[^3H]-PGE2 (3”, “400” for “100”, “45” for “30”, “37°” for “30°”, “water at ambient temperature,” for “ice cold assay buffer,”
The preparation of 3-{2-[5-Bromo-2-(2,4-difluoro-benzyloxy)-phenyl]-5-methyl-pyrrol-1-yl}-6-methoxy-benzoic acid is described in WO 03/101959 and in Hall et al, Biorg. Med. Chem. Lett., 2007, 17, 916-920. The tritiated version may be prepared via conventional routes, e.g. from 3-{2-[5-bromo-2-(2,4-difluoro-benzyloxy)-phenyl]-5-methyl-pyrrol-1-yl}-6-hydroxy-benzoic acid or 3-{2-[5-bromo-2-(2,4-difluoro-benzyloxy)-phenyl]-5-methyl-pyrrol-1-yl}-6-hydroxy-benzoic acid methyl ester.

Row | Ki (human EP3 receptor) | Ki (human EP1 receptor [1]) | IC50 (human EP1 receptor [2]) | Compound
1 | 0.501 to 10 µM | ≤ 316 nM | – | CCNCc1ccc(NC(=O)c2ccc(Cc3cc(Cl)cc4cc(C(C)C)oc34)o2)cc1 [Example 56, 5-{[5-Chloro-2-(1-methylethyl)-1-benzofuran-7-yl]methyl}-N-{4-[(ethylamino)methyl]phenyl}-2-furancarboxamide Hydrochloride]
2 | 0.501 to 10 µM | ≤ 316 nM | ≤ 100 nM | CC(C)c1cc2cc(Cl)cc(Cc3ccc(C(=O)Nc4ccc(CO)cc4)o3)c2o1 [Example 72, 5-{[5-Chloro-2-(1-methylethyl)-1-benzofuran-7-yl]methyl}-N-[4-(hydroxymethyl)phenyl]-2-furancarboxamide]
3 | – | ≤ 316 nM | ≤ 100 nM | Cc1cc(C(=O)NC2CCOCC2)nn1Cc1cc(Cl)cc2cc(C(C)C)oc12 [Example 60, 1-{[5-chloro-2-(1-methylethyl)-1-benzofuran-7-yl]methyl}-5-methyl-N-(tetrahydro-2H-pyran-4-yl)-1H-pyrazole-3-carboxamide]
4 | – | ≤ 316 nM | ≤ 100 nM | Cc1cc(NC(=O)C(C)C)nn1Cc1cc(C#N)cc2cc(C(C)C)oc12 [Example 68, N-(1-{[5-Cyano-2-(1-methylethyl)-1-benzofuran-7-yl]methyl}-5-methyl-1H-pyrazol-3-yl)-2-methylpropanamide]

Further lines, the compound ahead of its results:

Row | Compound | Ki (human EP3 receptor) | Ki (human EP1 receptor [1]) | IC50 (human EP1 receptor [2])
5 | CCCc1cc2cc(Cl)cc(Cn3nc(C(=O)O)cc3C)c2o1 [Example 21, 1-[(5-chloro-2-propyl-1-benzofuran-7-yl)methyl]-5-methyl-1H-pyrazole-3-carboxylic Acid] | 0.501 to 10 µM | ≤ 316 nM | ≤ 100 nM
6 | CC(C)c1cc2cc(Cl)cc(Cc3cccc(C(=O)NN4CCOCC4)n3)c2o1 [Example 44, 6-{[5-Chloro-2-(1-methylethyl)-1-benzofuran-7-yl]methyl}-N-4-morpholinyl-2-pyridinecarboxammide] | 0.501 to 10 µM | ≤ 316 nM | ≤ 100 nM
7 | CC(C)c1cc2cc(Cl)cc(Cc3ccc(C(=O)Nc4ccc(CN5CCCC5)cc4)o3)c2o1 [Example 53, 5-{[5-Chloro-2-(1-methylethyl)-1-benzofuran-7-yl]methyl}-N-[4-(1-pyrrolidinylmethyl)phenyl]-2-furancarboxamide] | 0.501 to 10 µM | ≤ 316 nM | ≤ 100 nM
8 | Cc1cc(C(=O)O)nn1Cc1cc(Cl)cc2cc(C3CCCCC3)oc12 [Example 26, 1-[(5-Chloro-2-cyclohexyl-1-benzofuran-7-yl)methyl]-5-methyl-1H-pyrazole-3-carboxylic Acid] | 0.501 to 10 µM | ≤ 316 nM | ≤ 100 nM
9 | CC(C)c1cc2cc(Cl)cc(Cc3ccc(C(=O)Nc4ccc(CN5CCC(O)CC5)cc4)o3)c2o1 [Example 55, 5-{[5-Chloro-2-(1-methylethyl)-1-benzofuran-7-yl]methyl}-N-{4-[(4-hydroxy-1-piperidinyl)methyl]phenyl}-2-furancarboxamide Hydrochloride] | 0.501 to 10 µM | ≤ 316 nM | ≤ 100 nM
10 | Cc1cc(NC(=O)OCC2CCNCC2)nn1Cc1cc(Cl)cc2cc(C(C)C)oc12 [Example 4, 4-Piperidinylmethyl (1-{[5-chloro-2-(1-methylethyl)-1-benzofuran-7-yl]methyl}-5-methyl-1H-pyrazol-3-yl)carbamate Hydrochloride] | 0.501 to 10 µM | ≤ 316 nM | –
11 | CC(C)NC(=O)c1ccc(Cc2cc(Cl)cc3cc(C(C)C)oc23)o1 [Example 38, 5-{[5-Chloro-2-(1-methylethyl)-1-benzofuran-7-yl]methyl}-N-(1-methylethyl)-2-furancarboxamide] | 0.501 to 10 µM | – | –
12 | CC(C)c1cc2cc(Cl)cc(Cc3cccc(C(=O)NCC4CCNCC4)n3)c2o1 [Example 47, 6-{[5-Chloro-2-(1-methylethyl)-1-benzofuran-7-yl]methyl}-N-(4-piperidinylmethyl)-2-pyridinecarboxamidehydrochloride] | 0.501 to 10 µM | – | –
13 | CC(C)c1cc2cc(Cl)cc(Cc3ccc(C(=O)NN(C)C)o3)c2o1 [Example 39, 5-{[5-Chloro-2-(1-methylethyl)-1-benzofuran-7-yl]methyl}-N′,N′-dimethyl-2-furancarbohydrazide] | 0.501 to 10 µM | ≤ 316 nM | –
14 | Cc1cc(C(=O)N2CCOCC2)nn1Cc1cc(Cl)cc2cc(C3CC3)oc12 [Example 32, 4-({1-[(5-chloro-2-cyclopropyl-1-benzofuran-7-yl)methyl]-5-methyl-1H-pyrazol-3-yl}carbonyl)morpholine] | 0.501 to 10 µM | ≤ 316 nM | –

From patent US20090099169A1, “Benzofuran Compounds As EP1 Receptor Antagonists” (GLAXO GROUP LIMITED, priority 2006, published 2009)
